{
  "source": "patent EP0128651A2",
  "about": "“Pyranones and related compounds and methods for their production and use” (WARNER-LAMBERT COMPANY, priority 1983, dated 1984)",
  "key": {"L1210 Cells": {"system": "L1210 Cells", "experiment": "Cytotoxicity against L1210 cells", "assay_type": "cell-based", "conditions": "Mus musculus, read-out: ID50 (the source's name)"}, "Mouse Leukemia P3888": {"system": "Mouse Leukemia P3888", "experiment": "Animal tumor screening, mouse leukemia P388", "assay_type": "in vivo", "parameters": "key: -X= Borderline activity shown.; X= Activity shown. The initial endpoint is less stringent and is indicative of statistical significance.; XX= Outstanding activity shown and a proportion of \"cures\" produced. The stringent endpoint is indicative of sufficient antitumor selectivity to warrant consideration for development toward clinical trial.; No= No activity shown"}, "Mouse Leukemia L1210": {"system": "Mouse Leukemia L1210", "experiment": "Animal tumor screening, response of L1210 leukemia in mice", "assay_type": "in vivo", "parameters": "key to Activiity: -X= Borderline activity shown.; X= Activity shown. The initial endpoint is less stringent and is indicative of statistical significance.; XX= Outstanding activity shown and a proportion of \"cures\" produced. The stringent endpoint is indicative of sufficient antitumor selectivity to warrant consideration for development toward clinical trial.; No= No activity shown", "conditions": "for T/C(%) / \"Cures\": Daily x 9"}, "Mouse Colon 38": {"system": "Mouse Colon 38", "experiment": "Animal tumor screening, mouse colon 38", "assay_type": "in vivo", "parameters": "key: -X= Borderline activity shown.; X= Activity shown. The initial endpoint is less stringent and is indicative of statistical significance.; XX= Outstanding activity shown and a proportion of \"cures\" produced. The stringent endpoint is indicative of sufficient antitumor selectivity to warrant consideration for development toward clinical trial.; No= No activity shown"}, "Mouse Melanoma B16": {"system": "Mouse Melanoma B16", "experiment": "Animal tumor screening, mouse melanoma B16", "assay_type": "in vivo", "parameters": "key: -X= Borderline activity shown.; X= Activity shown. The initial endpoint is less stringent and is indicative of statistical significance.; XX= Outstanding activity shown and a proportion of \"cures\" produced. The stringent endpoint is indicative of sufficient antitumor selectivity to warrant consideration for development toward clinical trial.; No= No activity shown"}, "Mouse Mammary CD8F1": {"system": "Mouse Mammary CD8F1", "experiment": "Animal tumor screening, mouse mammary CD8F1", "assay_type": "in vivo", "parameters": "key: -X= Borderline activity shown.; X= Activity shown. The initial endpoint is less stringent and is indicative of statistical significance.; XX= Outstanding activity shown and a proportion of \"cures\" produced. The stringent endpoint is indicative of sufficient antitumor selectivity to warrant consideration for development toward clinical trial.; No= No activity shown", "conditions": "treatment started 34 days after tumor implant (advanced-stage tumor)"}, "Mluse Lewis Lung": {"system": "Mluse Lewis Lung", "experiment": "Animal tumor screening, mouse Lewis lung", "assay_type": "in vivo", "parameters": "key: -X= Borderline activity shown.; X= Activity shown. The initial endpoint is less stringent and is indicative of statistical significance.; XX= Outstanding activity shown and a proportion of \"cures\" produced. The stringent endpoint is indicative of sufficient antitumor selectivity to warrant consideration for development toward clinical trial.; No= No activity shown"}, "Human Mammary Xenograft": {"system": "Human Mammary Xenograft", "experiment": "Animal tumor screening, human mammary xenograft", "assay_type": "in vivo", "parameters": "key: -X= Borderline activity shown.; X= Activity shown. The initial endpoint is less stringent and is indicative of statistical significance.; XX= Outstanding activity shown and a proportion of \"cures\" produced. The stringent endpoint is indicative of sufficient antitumor selectivity to warrant consideration for development toward clinical trial.; No= No activity shown"}, "Human Lung Xenograft": {"system": "Human Lung Xenograft", "experiment": "Animal tumor screening, human lung xenograft", "assay_type": "in vivo", "parameters": "key: -X= Borderline activity shown.; X= Activity shown. The initial endpoint is less stringent and is indicative of statistical significance.; XX= Outstanding activity shown and a proportion of \"cures\" produced. The stringent endpoint is indicative of sufficient antitumor selectivity to warrant consideration for development toward clinical trial.; No= No activity shown"}},
  "note": "Marks after values point to notes of the source that are not given here.",
  "data": [
    {"compound": "CC(=O)OCC=CC=CC=CC(CC(OP(=O)(O)O)C(C)(O)C=CC1CC=CC(=O)O1)OC(C)=O.[Na]", "note": "(stereo not shown) [CL 1565-A Diacetate, Sodium Salt, 6-[6,13-Bis(acetyloxy)-3-hydroxy-3-methyl-4-(phosphonooxy)-1,7,9,11-tridecatetraenyl]-5,6-dihydro-2H-pyran-2-one, sodium salt]", "values": [
      {"measurement": "IC50", "setting": "L1210 Cells", "result": "~6", "unit": "µg/mL"}
    ]},
    {"compound": "CC(O)(C=CC1CC=CC(=O)O1)C(O)CC(O)C=CC=CC=CCO", "note": "(stereo not shown) [CL 1565-A alcohol, 5,6-Dihydro-6-(3,4,6,13-tetrahydroxy-3-methyl-l,7,9, 11-tridecatetraenyl)-2H-pyran-2-one]", "values": [
      {"measurement": "IC50", "setting": "L1210 Cells", "result": 2.5, "unit": "µg/mL"}
    ]},
    {"compound": "CC(O)(C=CC1CC=CC(=O)O1)C(CC(O)C=CC=CC=CCO)OP(=O)(O)O", "note": "(stereo not shown) [CL 1565-A, 5,6-dihydro-6-(3,6,13-trihydroxy-3-methyl-4-(phosphonooxy)-1,7,9,11-tridecatetraenyl)-2H-pyran-2-one]", "values": [
      {"measurement": "Activiity", "setting": "Mouse Leukemia P3888", "result": "X"},
      {"measurement": "Activiity", "setting": "Mouse Leukemia L1210; Mouse Leukemia L1210", "result": "XX (curative)"},
      {"measurement": "T/C(%)", "setting": "Mouse Leukemia L1210; Test 1, 6.25 mg/kg/dose", "result": 207, "unit": "%"},
      {"measurement": "\"Cures\"", "setting": "Mouse Leukemia L1210; Test 1, 6.25 mg/kg/dose, 30-day survivors are considered cures", "result": "0/6^e"},
      {"measurement": "T/C(%)", "setting": "Mouse Leukemia L1210; Test 2, 3.12 mg/kg/dose", "result": 191, "unit": "%"},
      {"measurement": "\"Cures\"", "setting": "Mouse Leukemia L1210; Test 2, 3.12 mg/kg/dose, survivors at completion of observation period", "result": "0/6"},
      {"measurement": "T/C(%)", "setting": "Mouse Leukemia L1210; Test 2, 6.25 mg/kg/dose", "result": 194, "unit": "%"},
      {"measurement": "\"Cures\"", "setting": "Mouse Leukemia L1210; Test 2, 6.25 mg/kg/dose, survivors at completion of observation period", "result": "1/6"},
      {"measurement": "T/C(%)", "setting": "Mouse Leukemia L1210; Test 2, 12.50 mg/kg/dose", "result": 337, "unit": "%"},
      {"measurement": "\"Cures\"", "setting": "Mouse Leukemia L1210; Test 2, 12.50 mg/kg/dose, survivors at completion of observation period", "result": "3/6"},
      {"measurement": "T/C(%)", "setting": "Mouse Leukemia L1210; Test 3, 1.56 mg/kg/dose", "result": 150, "unit": "%"},
      {"measurement": "\"Cures\"", "setting": "Mouse Leukemia L1210; Test 3, 1.56 mg/kg/dose, survivors at completion of observation period", "result": "0/6"},
      {"measurement": "T/C(%)", "setting": "Mouse Leukemia L1210; Test 3, 3.12 mg/kg/dose", "result": 195, "unit": "%"},
      {"measurement": "\"Cures\"", "setting": "Mouse Leukemia L1210; Test 3, 3.12 mg/kg/dose, survivors at completion of observation period", "result": "0/6"},
      {"measurement": "T/C(%)", "setting": "Mouse Leukemia L1210; Test 3, 6.25 mg/kg/dose", "result": 216, "unit": "%"},
      {"measurement": "\"Cures\"", "setting": "Mouse Leukemia L1210; Test 3, 6.25 mg/kg/dose, survivors at completion of observation period", "result": "0/6"},
      {"measurement": "T/C(%)", "setting": "Mouse Leukemia L1210; Test 3, 12.50 mg/kg/dose", "result": 246, "unit": "%"},
      {"measurement": "\"Cures\"", "setting": "Mouse Leukemia L1210; Test 3, 12.50 mg/kg/dose, 45-day observation period", "result": "0/6^f"},
      {"measurement": "T/C(%)", "setting": "Mouse Leukemia L1210; Test 4, 3.12 mg/kg/dose", "result": 194, "unit": "%"},
      {"measurement": "\"Cures\"", "setting": "Mouse Leukemia L1210; Test 4, 3.12 mg/kg/dose, survivors at completion of observation period", "result": "0/6"},
      {"measurement": "T/C(%)", "setting": "Mouse Leukemia L1210; Test 4, 6.25 mg/kg/dose", "result": 236, "unit": "%"},
      {"measurement": "\"Cures\"", "setting": "Mouse Leukemia L1210; Test 4, 6.25 mg/kg/dose, survivors at completion of observation period", "result": "1/6"},
      {"measurement": "T/C(%)", "setting": "Mouse Leukemia L1210; Test 4, 12.50 mg/kg/dose", "result": 268, "unit": "%"},
      {"measurement": "\"Cures\"", "setting": "Mouse Leukemia L1210; Test 4, 12.50 mg/kg/dose, survivors at completion of observation period", "result": "0/6^g"},
      {"measurement": "curative effect in the L1210 tumor mouse model", "setting": "Mouse Leukemia L1210; result in words", "result": "curative"},
      {"measurement": "survival period of mice inoculated with mouse leukemia L1210", "setting": "Mouse Leukemia L1210; result in words", "result": "significantly prolongs the survival period"},
      {"measurement": "Activiity", "setting": "Mouse Colon 38", "result": "X"},
      {"measurement": "Activiity", "setting": "Mouse Melanoma B16", "result": "No"},
      {"measurement": "Activiity", "setting": "Mouse Mammary CD8F1", "result": "Xa"},
      {"measurement": "Activiity", "setting": "Mluse Lewis Lung", "result": "No"},
      {"measurement": "Activiity", "setting": "Human Mammary Xenograft", "result": "-X"},
      {"measurement": "Activiity", "setting": "Human Lung Xenograft", "result": "No"}
    ]}
  ]
}
